Test results: PMC6905855, “Agonist-specific voltage-dependent gating of lysosomal two-pore Na^+ channels” (eLife, 2019)
Values joined by “and” are separate entries in the source; they are usually repeats but may differ in a detail not shown here. Identical values can stand only once. “Also recorded” adds a separate entry of the source.

Experiments:
[1] = system: surface-expressing mutant TRPML1 channels (TRPML1^4A); test: Whole-cell recordings of ITRPML1-4A; type: cell-based; details: TRPML1-4A wc; 100µM; individual cells
[2] = target: T1, PI(3,5)P2-insensitive mutant TPC2 channel (K204A) (Homo sapiens, UniProt Q8NHX9, K204A); test: Whole-endolysosome recordings of ITPC2-K204A; type: biochemical; details: for Normalized I-TPC2: TPC2-K204A
T1 construct: expressed in transfected cells; host or cells: HEK293
Excerpt: PI(3,5)P2 reportedly binds to Lys204 and adjacent AA residues to activate TPC2 ([She et al., 2019]). […] Lysosomal PI(3,5)P2 may play a permissive role in TPC activation in intact cells ([Ruas et al., 2015]).
(§1) Data are presented as Mean ± S.E.M (n = 3 patches). […] For panels B, D and F, individual data and Mean ± S.E.M are presented. *, p<0.05; **, p<0.01; ***, p<0.001; N.S., no significance. Figure 3—source data 1. […] Figure 3—figure supplement 1. […] Both individual data points and Mean ± S.E.M are presented (n ≥ 3 patches; also see individual data in Figure 3—figure supplement 1—source data 1). Figure 3—figure supplement 1—source data 1.
All TPC1 and TPC2 mutants were generated with a site-directed mutagenesis kit (Qiagen) using EGFP- human TPC1 and TPC2 as the templates. All constructs were confirmed by DNA sequencing.
(§2) Whole-endolysosome recordings were performed on manually isolated enlarged endolysosomes ([Wang et al., 2012]). In brief, a patch pipette was pressed against a cell and quickly pulled away to slice the cell membrane. Enlarged endolysosomes were released into a dish and identified by monitoring EGFP-TPC1/2 or the mCherry-TPC1/2 fluorescence. After formation of a gigaseal between the patch pipette and the enlarged endolysosome, capacitance transients were compensated. Voltage steps of several hundred mVs with millisecond duration were then applied to break into the vacuolar membrane. The whole-endolysosome configuration was verified by the re-appearance of capacitance transients after break-in.
(§3) Data were collected using an Axopatch 200A patch clamp amplifier, Digidata 1440, and pClamp 10.2 software (Axon Instruments). Whole-endolysosome currents were digitized at 10 kHz and filtered at 2 kHz. All experiments were conducted at room temperature (21–23°C), and all recordings were analyzed with pClamp 10.2, and Origin 8.0 (OriginLab, Northampton, MA). The permeability to cations (relative to PNa) was estimated based on following equations ([Lewis, 1979]) and Erev measurement under bi-ionic conditions:(1) PX/PNa=γNa/γX{[Na^+]Luminal/[X^+]Cytoplasmic}{exp([…])} (2) PCa/PNa=γNa/γCa{[Na^+]Cytoplasmic/[4[Ca^2+]Luminal}{exp(ErevF/RT)}{1+exp(ErevF/RT)} where R, T, F, Erev, and γ are, respectively, the gas constant, absolute temperature, Faraday constant, reversal potential, and activity coefficient. The liquid junction potentials were measured and corrected as described ([Neher, 1992]).

[3] = system: TPC1/2 DKO HAP1 cells; test: Whole-endolysosome recordings in TPC1/2 DKO HAP1 cells; type: biochemical, human; details: for whole-endolysome ITPC current: dko HAP1, LyNa-VA1.1 (50 µM) co-applied with PI(3,5)P2 (0.3 µM)
Excerpt: TCAs, with a general structure of an aromatic greasy core and an aliphatic chain containing a terminal amine, are lysosomotropic compounds that are known to be highly accumulating in the lysosomes due to proton trapping ([Beckmann et al., 2014]). We next tested the effects of LyNa-VAs in hTPC2-transfected Cos1 and HEK293 cells using whole-endolyosome patch-clamp.
as §1
TPC1 and TPC2 CRISPR KO cells were generated in HAP1 cells using the CRISPR/Cas9 system. The TPC1 sequence (5'cttgcagtacttcagcaccc3', TPC1-sgRNA) and TPC2 sequence (5'ccccagcgtcgggctgctgc3', TPC2-sgRNA) were targeted with pSpCas9 (BB)−2A-puro vector (Addgene). HAP1 cells were co-transfected with TPC1 and TPC2-sgRNA expressing vector in the presence of Lipofectamine 2000 (In vitrogen) and selected with 2 μg/ml puromycin for 48 hr. The remaining cells were trypsinized and seeded into 96-well plate after a limiting dilution. When single cell clones were established, their genomic DNAs were extracted and amplified with following primers: TPC1-fw: 5’atggcccagacatgtgactc3’, TPC1-re: 5’ tgcctgtctccatcctctca3’; TPC2-fw: 5’tgagctgagcatgaggcaag3’, TPC2-re: 5’ aaaggacaagtggccctgag3’. The PCR amplicons were then sequenced to confirm the intended genetic disruption.
as §2
as §3, with “coefficient.” for “coefficient. The liquid junction potentials were measured and corrected as described ([Neher, 1992]).”

[4] = system: T2, TPC2^K204A in HEK293 cells; test: Whole-cell recordings of ITPC2-K204A; type: cell-based, human; details: TPC2^K204A-transfected HEK293 cells
T2 construct: expressed in transfected cells; host or cells: HEK293

[5] = system: T3, TRPML1; test: Whole-endolysosome recordings of ITRPML1; type: biochemical; details: TRPML1-transfected cells
T3 construct: expressed in transfected cells

T1 sequence (Q8NHX9 whole entry K204A): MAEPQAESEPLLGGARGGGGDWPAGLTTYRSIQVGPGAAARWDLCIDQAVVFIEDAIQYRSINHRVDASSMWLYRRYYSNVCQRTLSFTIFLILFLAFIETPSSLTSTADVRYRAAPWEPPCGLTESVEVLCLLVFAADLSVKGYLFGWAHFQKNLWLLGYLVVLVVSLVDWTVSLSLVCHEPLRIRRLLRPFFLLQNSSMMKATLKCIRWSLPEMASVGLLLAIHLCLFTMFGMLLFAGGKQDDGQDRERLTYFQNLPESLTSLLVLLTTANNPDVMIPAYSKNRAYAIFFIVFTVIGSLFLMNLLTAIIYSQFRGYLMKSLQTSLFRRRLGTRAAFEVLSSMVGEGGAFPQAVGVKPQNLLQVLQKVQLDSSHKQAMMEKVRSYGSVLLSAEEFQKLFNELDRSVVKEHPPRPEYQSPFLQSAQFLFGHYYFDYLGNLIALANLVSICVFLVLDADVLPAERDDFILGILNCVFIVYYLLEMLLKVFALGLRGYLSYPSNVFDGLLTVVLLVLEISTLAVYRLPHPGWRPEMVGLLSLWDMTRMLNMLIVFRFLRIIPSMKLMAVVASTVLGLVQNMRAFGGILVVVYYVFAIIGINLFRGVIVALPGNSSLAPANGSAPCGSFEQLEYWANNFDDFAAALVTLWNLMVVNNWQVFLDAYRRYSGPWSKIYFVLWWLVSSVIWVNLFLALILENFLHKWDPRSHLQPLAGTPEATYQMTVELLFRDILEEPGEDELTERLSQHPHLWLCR

`CN(C)CCCN1c2ccccc2CCc2ccc(Cl)cc21` [LyNa-VA1.1, Clomipramine] was tested, and the “current, whole-cell ITRPML1-4A” value [1] was 28.1 pA and 29.7 pA and 114.4 pA and 172.7 pA, the EC50 ([2]; K204A +PI(3,5)P2 (50 nM), whole-endolysosome, Figure 3C) was 47 ± 5 µM and the EC50 ([2]; K204A -PI(3,5)P2, whole-endolysosome, Figure 3C) was 56 ± 3 µM. The EC50 ([2]; K204A -pip2, MEAN (Fig. 3D)) was 59.7 µM, the EC50 ([2]; K204A -pip2, individual patches (Fig. 3D)) was 56.4 µM and 68.2 µM and 54.5 µM and the EC50 ([2]; K204A+pip2 (50 nM), MEAN (Fig. 3D)) was 48.7 µM. The EC50 ([2]; K204A+pip2 (50 nM), individual patches (Fig. 3D)) was 45.5 µM and 56.2 µM and 44.4 µM, the “Normalized I-TPC2” value ([2]; 1 µM + PI(3,5)P2 50nM, individual patches) was 0.01018 and 0.1053 and 0.1347 and the “Normalized I-TPC2” value ([2]; 1 µM + PI(3,5)P2 50nM, mean) was 0.08342. The “Normalized I-TPC2” value ([2]; 3 µM + PI(3,5)P2 50nM, individual patches) was -0.08987 and 0.1073 and 0.2183, the “Normalized I-TPC2” value ([2]; 3 µM + PI(3,5)P2 50nM, mean) was 0.07858 and the “Normalized I-TPC2” value ([2]; 10 µM + PI(3,5)P2 50nM, individual patches) was -0.1017 and 0.1767 and 0.2594. For the same compound, the “Normalized I-TPC2” value ([2]; 10 µM + PI(3,5)P2 50nM, mean) was 0.1115, the “Normalized I-TPC2” value ([2]; 10 µM, no PI(3,5)P2, individual patches) was 0.02985 and 0.03877 and 0.00366 and the “Normalized I-TPC2” value ([2]; 10 µM, no PI(3,5)P2, mean) was 0.02409. The “Normalized I-TPC2” value ([2]; 20 µM, no PI(3,5)P2, individual patches) was 0.03731 and 0.1741 and 0.01903, the “Normalized I-TPC2” value ([2]; 20 µM, no PI(3,5)P2, mean) was 0.07682 and the “Normalized I-TPC2” value ([2]; 30 µM + PI(3,5)P2 50nM, individual patches) was 0.119 and 0.2972 and 0.3327. The “Normalized I-TPC2” value ([2]; 30 µM + PI(3,5)P2 50nM, mean) was 0.2496, the “Normalized I-TPC2” value ([2]; 50 µM, no PI(3,5)P2, individual patches) was 0.2736 and 0.4263 and 0.3898 and the “Normalized I-TPC2” value ([2]; 50 µM, no PI(3,5)P2, mean) was 0.3632. For the same compound, the “Normalized I-TPC2” value ([2]; 100 µM + PI(3,5)P2 50nM, individual patches) was 0.8468 and 1 (2×), the “Normalized I-TPC2” value ([2]; 100 µM + PI(3,5)P2 50nM, mean) was 0.9489 and the “Normalized I-TPC2” value ([2]; 100 µM, no PI(3,5)P2, individual patches) was 0.8657 and 1 and 0.7921. The “Normalized I-TPC2” value ([2]; 100 µM, no PI(3,5)P2, mean) was 0.8859, the “Normalized I-TPC2” value ([2]; 200 µM + PI(3,5)P2 50nM, individual patches) was 1 and 0.5762 and 0.9144 and the “Normalized I-TPC2” value ([2]; 200 µM + PI(3,5)P2 50nM, mean) was 0.8302. For the same compound, the “Normalized I-TPC2” value ([2]; 200 µM, no PI(3,5)P2, individual patches) was 1 (2×) and 0.8492, the “Normalized I-TPC2” value ([2]; 200 µM, no PI(3,5)P2, mean) was 0.9497 and the “activation of whole-endolysosome ITPC in TPC1/2 DKO HAP1 cells (in words)” value [3] was “not TPC1/2 DKO”. For the same compound, the “whole-endolysome ITPC current” value ([3]; individual) was 15.3 pA and 12.5 pA and 24.7 pA and 10.4 pA and the “whole-endolysome ITPC current” value ([3]; mean) was 15.725 pA.
In the case of `CNCCCN1c2ccccc2CCc2ccccc21` [LyNa-VA1.2, Desipramine], the “activation of whole-cell ITPC2-K204A (in words)” value [4] is reported as “activated”.
For `Nc1nc2ccc(OC(F)(F)F)cc2s1` [LyNA1, Riluzole], the “activation of whole-endolysosome ITPC2-K204A (in words)” value [2] was “robustly activated whole-endolysosome ITPC2”, the “activation of whole-endolysosome ITRPML1 (in words)” value [5] was “no current activation; also recorded: lack of the activation effects” and the “activation of whole-endolysosome ITPC in TPC1/2 DKO HAP1 cells (in words)” value [3] was “not HAP1 cells lacking TPC1 or TPC2; also recorded: not TPC1/2 double KO HAP1 cells”. For the same compound, the “activation of whole-cell ITPC2-K204A (in words)” value [4] was “activated”.
